What was measured:
TNF-α production = assay: Inhibition of TNF-α production following LPS-stimulation of human PBMC and human whole blood; type: cell-based; conditions: in vitro studies; compared with thalidomide
Method: In a specific embodiment, the pharmacological properties of 3-(3,4-dimethoxy-phenyl)-3-(1-oxo-1,3-dihydro-isoindol-2-yl)-propionamide are characterized in in vitro studies. Studies examine the effects of the compound on the production of various cytokines. Inhibition of TNF-α production following LPS-stimulation of human PBMC and human whole blood by the compound is investigated in vitro. The IC50's of the compound for inhibiting production of TNF-α are measured. […] The pharmacological effects of 3-(3,4-dimethoxy-phenyl)-3-(1-oxo-1,3-dihydro-isoindol-2-yl)-propionamide may derive from its action as an inhibitor of the generation of inflammatory cytokines.

[1] = Cardiovascular and respiratory function in anesthetized dogs; type: in vivo; conditions: anesthetized Beagle dogs; ascending doses 400, 800 and 1,200 mg/kg/day by infusion through the jugular vein
Method: The effects of 3-(3,4-dimethoxy-phenyl)-3-(1-oxo-1,3-dihydro-isoindol-2-yl)-propionamide on cardiovascular and respiratory function are investigated in anesthetized dogs. Two groups of Beagle dogs (2/sex/group) are used. One group receives three doses of vehicle only and the other receives three ascending doses of 3-(3,4-dimethoxy-phenyl)-3-(1-oxo-1,3-dihydro-isoindol-2-yl)-propionamide (400, 800, and 1,200 mg/kg/day). In all cases, doses of 3-(3,4-dimethoxy-phenyl)-3-(1-oxo-1,3-dihydro-isoindol-2-yl)-propionamide or vehicle are successively administered via infusion through the jugular vein separated by intervals of at least 30 minutes.

[2] = Clinical study in pain patients with upper extremity CRPS; type: in vivo, human; conditions: 1,200 mg as a continuous oral daily dose
Method: Selective cytokine inhibitory drugs of the invention such as 3-(3,4-dimethoxy-phenyl)-3-(1-oxo-1,3-dihydro-isoindol-2-yl)-propionamide are administered in an amount of 400 to 1,200 mg per day to patients with pain syndromes for three to six months. A baseline evaluation is performed for the effect of the drug treatment on pain intensity, impact of pain on activities of daily living, and consumption of other pain medications.
In a specific embodiment, clinical studies are performed in pain patients who have upper extremity CRPS that has not responded to conventional physical therapy and has been present for at least one year. In the early course of their diseases, patients have clear evidence of autonomic dysfunction with formal autonomic testing (Quantitative sudomotor axon reflex test (QSART), resting sweat output, and thermography). If this is unavailable, documentation of clinical signs indicates autonomic dysfunction (changes in hydration, temperature, skin, nail or hair growth) along with symptoms of allodynia and swelling. […] Responses are assessed using standard pain scales, e.g., Numeric Pain Scale Assessment (VAS) for pain, quality of life using the McGill Index and objective signs in clinical examination such as a visible reduction of swelling, sweating, discolorations in skin color, temperature changes, changes in skin, hair and nail growth, and fine motor movements. […]

[3] = 8 to 10 mg/kg i.p.; acute pain assays; cited from earlier work

Row | SMILES | pharmacological activity profile, potency relative to thalidomide (TNF-α production) | cardiovascular and respiratory changes compared to the vehicle control group [1] | tolerability [2] | anti-nociceptive response [3]
1 | COc1ccc(C(CC(N)=O)N2Cc3ccccc3C2=O)cc1OC (stereo not shown) [3-(3,4-dimethoxy-phenyl)-3-(1-oxo-1,3-dihydro-isoindol-2-yl)-propionamide] | five to fifty | minimal at all doses | well-tolerated | –
2 | CN1CC[C@]23c4c5ccc(O)c4O[C@H]2[C@@H](O)C=C[C@H]3[C@H]1C5 [morphine] | – | – | – | near-maximal anti-nociceptive response
